Source: paper PMC9345997, “Determination of oligosaccharide product distributions of PL7 alginate lyases by their structural elements” (Communications Biology, 2022)

Target: T1, PyAly (Pyropia yezoensis, UniProt D2KX85, H125A/Y223A)
T1 construct: single-domain PL7 lyase; E. coli BL21(DE3), pET32a; tag cleaved; residues built 27-241
Assay: X-ray crystal structure, […] A
Format: binding
Settings: cocrystallized at 10:1 molar ratio; complete M5 at subsites -2 to +3

T1 sequence (D2KX85 entry or part of it H125A/Y223A): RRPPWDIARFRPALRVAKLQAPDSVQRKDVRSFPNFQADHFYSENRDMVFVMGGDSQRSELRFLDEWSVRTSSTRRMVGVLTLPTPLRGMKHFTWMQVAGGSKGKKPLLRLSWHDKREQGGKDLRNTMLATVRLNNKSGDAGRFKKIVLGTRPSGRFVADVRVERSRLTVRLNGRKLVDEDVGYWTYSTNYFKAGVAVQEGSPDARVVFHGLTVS

O=C(O)[C@H]1O[C@@H](O[C@H]2[C@H](O)[C@H](O)[C@H](O[C@H]3[C@H](O)[C@H](O)[C@H](O[C@H]4[C@H](O)[C@H](O)[C@H](O[C@H]5[C@H](O)[C@H](O)C(O)O[C@@H]5C(=O)O)O[C@@H]4C(=O)O)O[C@@H]3C(=O)O)O[C@@H]2C(=O)O)[C@@H](O)[C@@H](O)[C@@H]1O (stereo partly shown) [M5]
X-ray crystal structure, 1.70 A: structure of the PyAly^H125A_Y223A-M5 complex presented the complete M5 substrate
